Each block holds one molecule with its values, some of them ahead of it.
How the values were obtained:
[1] = system: RAW264.7; experiment: Inhibition of LPS induced NO production in mouse RAW264.7 cells at 30 uM preincubated for 1 hr followed by LPS addition and measured after 24 hrs by Griess reagent based assay relative to control; format: functional; details: time 25 hrs
[2] = target: 3',5'-cyclic-AMP phosphodiesterase 4B (Homo sapiens, UniProt Q07343); experiment: Inhibition of PDE4B (unknown origin) using […] as substrate incubated for 1 hr by PDElight HTS cAMP phosphodiesterase assay
[3] = system: RAW264.7; experiment: Inhibition of LPS induced NO production in mouse RAW264.7 cells preincubated for 1 hr followed by LPS addition and measured after 24 hrs by Griess reagent based assay; format: functional, cell-based

3',5'-cyclic-AMP phosphodiesterase 4B, sequence (Q07343 whole entry): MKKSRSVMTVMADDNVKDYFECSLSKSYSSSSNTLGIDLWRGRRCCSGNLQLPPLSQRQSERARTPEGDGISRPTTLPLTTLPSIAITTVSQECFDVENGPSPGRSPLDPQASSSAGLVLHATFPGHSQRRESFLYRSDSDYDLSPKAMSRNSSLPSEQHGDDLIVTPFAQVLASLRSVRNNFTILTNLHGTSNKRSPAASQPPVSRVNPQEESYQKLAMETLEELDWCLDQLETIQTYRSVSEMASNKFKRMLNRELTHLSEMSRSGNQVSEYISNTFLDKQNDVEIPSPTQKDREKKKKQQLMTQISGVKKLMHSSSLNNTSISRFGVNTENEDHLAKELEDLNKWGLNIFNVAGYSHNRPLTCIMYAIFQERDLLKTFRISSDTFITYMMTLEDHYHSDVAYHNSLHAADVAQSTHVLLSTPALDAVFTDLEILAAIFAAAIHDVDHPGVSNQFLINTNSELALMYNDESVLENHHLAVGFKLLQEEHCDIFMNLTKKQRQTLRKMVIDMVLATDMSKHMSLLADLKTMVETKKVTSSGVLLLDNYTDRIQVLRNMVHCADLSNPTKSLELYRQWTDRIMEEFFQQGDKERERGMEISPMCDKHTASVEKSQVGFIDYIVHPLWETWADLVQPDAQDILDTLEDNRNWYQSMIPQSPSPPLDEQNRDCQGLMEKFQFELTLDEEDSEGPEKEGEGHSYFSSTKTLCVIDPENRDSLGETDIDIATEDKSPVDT

Compound: O=S(=O)(Nc1cccc(NS(=O)(=O)c2cccc3cccnc23)c1)c1ccc(Br)cc1
- inhibition at 30 µM [1]: 20.2%

Compound: O=S(=O)(Nc1cccc(NS(=O)(=O)c2cccc3cccnc23)c1)c1ccc(C(F)(F)F)cc1
- inhibition at 30 µM [1]: 40.6%

Compound: O=S(=O)(Nc1cccc(NS(=O)(=O)c2cccc3cccnc23)c1)c1cccc(C(F)(F)F)c1
- inhibition at 30 µM [1]: 23.9%

Compound: O=S(=O)(Nc1cccc(NS(=O)(=O)c2cccc3cccnc23)c1)c1ccc(F)cc1
- inhibition at 30 µM [1]: 19%

Compound: CC(C)c1ccc(S(=O)(=O)Nc2cccc(NS(=O)(=O)c3cccc4cccnc34)c2)cc1
- inhibition at 30 µM [1]: 41.5%

Compound: O=S(=O)(Nc1cccc(NS(=O)(=O)c2cccc3cccnc23)c1)c1ccc(Cl)cc1
- inhibition at 30 µM [1]: 6.7%

Compound: CC(C)(C)c1ccc(S(=O)(=O)Nc2cccc(NS(=O)(=O)c3cccc4cccnc34)c2)cc1
- inhibition at 30 µM [1]: 39.3%

Compound: Cc1ccc(S(=O)(=O)Nc2cccc(NS(=O)(=O)c3cccc4cccnc34)c2)cc1
- inhibition at 30 µM [1]: 11.4%

Compound: O=S(=O)(Nc1cccc(NS(=O)(=O)c2cccc3cccnc23)c1)c1ccccc1C(F)(F)F
- inhibition at 30 µM [1]: 22%

- IC50 [2]: 0.94 µM
Compound: CC(C)c1cc(C(C)C)c(S(=O)(=O)Nc2cccc(NS(=O)(=O)c3cccc4cccnc34)c2)c(C(C)C)c1

Compound: O=S(=O)(Nc1cccc(NS(=O)(=O)c2cccc3cccnc23)c1)c1cccc(Br)c1
- inhibition at 30 µM [1]: 31.1%

Compound: O=S(=O)(Nc1cccc(NS(=O)(=O)c2cccc3cccnc23)c1)c1c(F)cccc1F
- inhibition at 30 µM [1]: 23.6%

Compound: O=S(=O)(Nc1cccc(NS(=O)(=O)c2cccc3cccnc23)c1)c1ccccc1OC(F)(F)F
- inhibition at 30 µM [1]: 13.2%

Compound: O=[N+]([O-])c1cccc(S(=O)(=O)Nc2cccc(NS(=O)(=O)c3cccc4cccnc34)c2)c1
- inhibition at 30 µM [1]: 28%

Compound: O=S(=O)(Nc1cccc(NS(=O)(=O)c2cccc3cccnc23)c1)c1ccccc1F
- inhibition at 30 µM [1]: 30.2%

Compound: O=S(=O)(Nc1cccc(NS(=O)(=O)c2cccc3cccnc23)c1)c1cccc(F)c1
- inhibition at 30 µM [1]: 17.8%

Compound: COc1ccc(S(=O)(=O)Nc2cccc(NS(=O)(=O)c3cccc4cccnc34)c2)c(OC)c1
- inhibition at 30 µM [1]: 12.8%

Compound: O=S(=O)(Nc1cccc(NS(=O)(=O)c2cccc3cccnc23)c1)c1ccc(I)cc1
- inhibition at 30 µM [1]: 39.5%

Compound: O=S(=O)(Nc1cccc(NS(=O)(=O)c2cccc3cccnc23)c1)c1ccccc1Cl
- inhibition at 30 µM [1]: 12.1%

Compound: O=S(=O)(Nc1cccc(NS(=O)(=O)c2cccc3cccnc23)c1)c1cc(Cl)cc(Cl)c1
- inhibition at 30 µM [1]: 29%

Compound: O=S(=O)(Nc1cccc(NS(=O)(=O)c2cccc3cccnc23)c1)c1ccc(OC(F)(F)F)cc1
- inhibition at 30 µM [1]: 31.6%

Compound: O=S(=O)(Nc1cccc(NS(=O)(=O)c2cccc3cccnc23)c1)c1ccccc1
- inhibition at 30 µM [1]: 23.8%

Compound: COc1ccc(Br)cc1S(=O)(=O)Nc1cccc(NS(=O)(=O)c2cccc3cccnc23)c1
- inhibition at 30 µM [1]: 16.3%

Compound: COc1ccc(S(=O)(=O)Nc2cccc(NS(=O)(=O)c3cccc4cccnc34)c2)cc1OC
- inhibition at 30 µM [1]: 32.3%

Compound: O=S(=O)(Nc1cccc(NS(=O)(=O)c2cccc3cccnc23)c1)c1ccccc1Br
- inhibition at 30 µM [1]: 23.6%

Compound: CC(=O)Nc1ccc(S(=O)(=O)Nc2cccc(NS(=O)(=O)c3cccc4cccnc34)c2)cc1
- inhibition at 30 µM [1]: 7.74%

Compound: N#Cc1ccc(S(=O)(=O)Nc2cccc(NS(=O)(=O)c3cccc4cccnc34)c2)cc1
- inhibition at 30 µM [1]: 25.2%

Compound: O=S(=O)(Nc1cccc(NS(=O)(=O)c2cccc3cccnc23)c1)c1c(Cl)cccc1Cl
- inhibition at 30 µM [1]: 24.7%

- IC50 [3]: 34.3 µM
Compound: COc1ccc2c(c1)c(CC(=O)O)c(C)n2C(=O)c1ccc(Cl)cc1 [INDOMETHACIN]
- inhibition at 30 µM [1]: 42.5%

Reference: ChEMBL document CHEMBL5137038, “Novel quinoline-based derivatives: A new class of PDE4B inhibitors for adjuvant-induced arthritis” (Eur J Med Chem, 2022)
